US20240383971A1, “Anti-DFS70 Autoantibodies and methods of attenuating formation of nets” (McMaster University, priority 2023, published 2024)

Tested on: neutrophils isolated from healthy donors
Experiment: In vitro NETosis assay (SEM images, MATLAB quantification)
Assay type: cell-based, human
Conditions: healthy donor neutrophils pooled n=4, 6 hrs

Compound | induction of NETosis in healthy neutrophils
CCCCCCCCCCCCCC(=O)O[C@@H]1[C@@H](C)[C@@]2(O)[C@@H](C=C(CO)C[C@]3(O)C(=O)C(C)=C[C@@H]23)[C@@H]2C(C)(C)[C@]12OC(C)=O [PMA, Phorbol 12-myristate 13-acetate] | stimulated to NETosis
CNc1ccc2oc(C[C@H]3O[C@@]4(CC[C@H]3C)O[C@H]([C@H](C)C(=O)c3ccc[nH]3)[C@H](C)C[C@H]4C)nc2c1C(=O)O [A23187] | stimulated to NETosis
